# Results: US20170056351A1, “COMPOSITION FOR INDUCING TUMOR IMMUNITY” (UNIVERSITY OF OCCUPATIONAL AND ENVIRONMENTAL HEALTH, JAPAN, priority 2014, published 2017)
# Tested on: 9L gliosarcoma cells
# Assay: In vivo radiosensitizing effect of ALA with multiple doses of ionizing radiation, tumor growth in rat subcutaneous tumor model
# Experimental: As experimental animals, inbred male Fischer 344 rats (8 week old) (SLC, Inc. (Hamamatsu, Japan)) were used and were inoculated with 9L gliosarcoma cells. The inoculation was carried out in accordance with the procedures described in the following publications: Yamamoto J, Hirano T, Li S, Koide M, Kohno E, Inenaga C, et al.: Selective accumulation and strong photodynamic effects of a new photosensitizer, ATX-S10.Na (II), in experimental malignant glioma. Int J Oncol 27: 1207-13, 2005; Yamamoto J, Yamamoto S, Hirano T, Li S, Koide M, Kohno E, et al.: Monitoring of singlet oxygen is useful for predicting the photodynamic effects in the treatment for experimental glioma. Clin Cancer Res 12: 7132-9, 2006. In short, 9L gliosarcoma cells (1×10^6 cells) were transplanted into the skin on the dorsal side of each Fischer 344 rat, so as to produce a rat subcutaneous tumor model.
# As described above, 9L gliosarcoma cells were inoculated into inbred Fischer 344 rats. […] Moreover, according to other previous studies, it had been reported that the dose of ALA by a single intravenous injection is 100 to 500 mg/kg body weight in the photodynamic therapy (PDT) using rodents (Yamamoto J, Yamamoto S, Hirano T, Li S, Koide M, Kohno E, et al.: Monitoring of singlet oxygen is useful for predicting the photodynamic effects in the treatment for experimental glioma. Clin Cancer Res 12:7132-9, 2006; Abels C, Heil P, Dellian M, Kuhnle G E, Baumgartner R, Goetz A E: In vivo kinetics and spectra of 5-aminolaevulinic acid-induced fluorescence in an amelanotic melanoma of the hamster. Br J Cancer 70: 826-33, 1994; Abels C, Fritsch C, Bolsen K, Szeimies R M, Ruzicka T, Goerz G, et al.: Photodynamic therapy with 5-aminolaevulinic acid-induced porphyrins of an amelanotic melanoma in vivo. J Photochem Photobiol B 40: 76-83, 1997; Bozzini G, Colin P, Betrouni N, Maurage C A, Leroy X, Simonin S, et al.: Efficiency of 5-ALA mediated photodynamic therapy on hypoxic prostate cancer: a preclinical study on the Dunning R3327-AT2 rat tumor model. Photodiagnosis Photodyn Ther 10: 296-303, 2013.). Accordingly, in the present study, the present inventors have determined the maximum dose of ionizing radiation to be 10 Gy, and the maximum dose of ALA to be 500 mg/kg body weight. […] Multiple intravenous injections into the caudal vein of rats had been technically difficult, but according to the experience of the present inventors, at maximum 5 times of injections had been possible. Accordingly, the present inventors have determined an optimal ionizing irradiation schedule, in which ionizing irradiation at a dose of 2 Gy/day and ALA multiple-dose administration at a dose of 100 mg/kg body weight/day were carried out for 5 consecutive days. After the subcutaneous tumor had grown to a size of 6 to 8 mm in diameter, the rats were randomly divided into four groups, and were then treated as follows:
# control group (without treatments) (n=5); ALA multiple-dose administration group (n=5); ionizing radiation multiple-dose application group (RT) (n=7); and ALA multiple-dose administration+ionizing radiation multiple-dose application group. (5-ALA+RT) (n=7).
# In a group to which only ALA was administered, only ALA (100 mg/kg) was administered to rats via caudal vein for 5 consecutive days. In a multiple-dose application group involving only ionizing radiation, rats were anesthetized and were then irradiated with an ionizing radiation of 2 Gy/day for 5 consecutive days (a total of 10 Gy). In an ALA multiple-dose administration+ionizing radiation multiple-dose application group, for 5 consecutive days, rats were intravenously administered with ALA (100 mg/kg), then 3 hours later, the rats were anesthetized, and an ionizing radiation of 2 Gy/day was applied to the subcutaneous tumor thereof in a dark place (a total of 10 Gy). Ionizing radiation was applied at a rate of 0.65 Gy/min, using an X-ray irradiation apparatus (MBR-1520R; HITACHI Engineering & Service Co., Ltd., Japan). […]
smiles,measurement,setting,value
"NCC(=O)CCC(=O)O [ALA, 5-aminolevulinic acid]",mean tumor growth inhibitory rate,"16th day after treatment, ALA multiple-dose + ionizing radiation multiple-dose group compared with ionizing radiation multiple-dose group",42.5%
same,"mean tumor volume, Day 0","ALA alone 100 mg/kg i.v. for 5 consecutive days, Day 0, mean ± SE, n = 5",143.9 ± 17.4 mm^3
same,"mean tumor volume, Day 8","ALA alone 100 mg/kg i.v. for 5 consecutive days, Day 8, mean ± SE, n = 5",865.4 ± 107.2 mm^3
same,"mean tumor volume, Day 10","ALA alone 100 mg/kg i.v. for 5 consecutive days, Day 10, mean ± SE, n = 5",1403 ± 224.3 mm^3
same,"mean tumor volume, Day 12","ALA alone 100 mg/kg i.v. for 5 consecutive days, Day 12, mean ± SE, n = 5",1842.6 ± 218.8 mm^3
same,"mean tumor volume, Day 14","ALA alone 100 mg/kg i.v. for 5 consecutive days, Day 14, mean ± SE, n = 5",2276.3 ± 192.8 mm^3
same,"mean tumor volume, Day 16","ALA alone 100 mg/kg i.v. for 5 consecutive days, Day 16, mean ± SE, n = 5",2869.4 ± 267.9 mm^3
same,growth of the tumor in comparison to the control group,"ALA multiple-dose administration alone, 16th day, p=0.0448",inhibited
